Experimental data: patent US20080261891A1, “COMPOSITIONS AND METHODS FOR USING SYRINGOPEPTIN 25A AND RHAMNOLIPIDS” (Utah State University, priority 2007, published 2008)
In brackets after ≈: the same amount, converted by molar mass. Where a SMILES comes first, the peptide text is derived from it. Bridges are numbered along the chain shown (N, C = ends). [ ]: non-standard residue; d: D form. The star is where a group is joined. ξ: configuration not given here. Decanoyl(3ξ-OH) = CCCCCCCC(O)CC(=O)*; Dab = NCC[CH](N)C(=O)O; Dhb = C/C=C(\N)C(=O)O

Tests used:
[1] = test system: human embryonic kidney cells (HEK 293); assay: Toxicity to mammalian cells, percent cell death (Nucleocounter); conditions: 4 μg/mL and 8 μg/mL, 6, 24, and 48 h
Protocol: (§1) Toxicity of the two compounds to mammalian cells was assayed in cell culture using mouse enteroendocrine cells (STC-1), human embryonic kidney cells (HEK 293; ATCC CRL-1573), and human lung fibroblasts (LL47; ATCC CCL-135). […] The human embryonic kidney cells and human lung fibroblasts were grown as per the American Type Culture Collection's recommendation, while the mouse enteroendocrine cells were grown as described by Vincent et al. (2001, Proc. Natl. Acad. Sci., 99:2392-2397). Media and sera were purchased from HyClone Laboratories (Logan, Utah). All cells were grown in 10% fetal bovine serum (FBS).
(§2) The number in the parenthesis represents the concentration of each compound in μg/mL. The percent cell death was benchmarked to 100% lysis with the positive control. The number of total cells and dead cells were counted after 6, 24, and 48 h using a Nucleocounter Automated cell counting system (New Brunswick; Edison, N.J.). Briefly, cells (STC, 200,000 cells/well; HEK 293, 200,000 cells/well; and LL47, 100,000 cells/well) were incubated in the appropriate medium for 24 h prior to addition of fresh media containing the antimicrobial compounds. After addition of the antimicrobial compound, the cell cultures were incubated at 37° C. with 5% CO2 for 6, 24, and 48 h. Cells were harvested by trypsinization using 0.25% trypsin-EDTA for 2 min. The trypsin was neutralized by addition of 200 μL of serum containing fresh medium. The cells were then harvested and transferred to 1.5 mL tubes, centrifuged (3-5 min at <100×g), and resuspended in 200 μL of fresh medium. For the total cell count, 100 μL of the suspension was added to lysis buffer (Reagent A100 in the starting kit (Cat No. M1293-0020, New Brunswick Scientific) for 30 s, which was stabilized using 100 μL of Reagent B. A positive control of completely lysed cells was used along with a negative control using sterile PBS (pH 7.4). For dead cell counts, 100 μL of cell lysate was counted without the use of lysis buffer or stabilizing buffer. All cell counts were obtained using the Nucleocounter automated cell counting system. Data were reported as the percent of cell death. The toxicity testing was done in replicate using three wells per test.

[2] = test system: mouse enteroendocrine cells (STC-1); assay: as above; conditions: 4 μg/mL and 8 μg/mL, 6, 24, and 48 h
Protocol: as §1, §2

[3] = test system: human lung fibroblasts (LL47); assay: as above; conditions: 4 μg/mL and 8 μg/mL, 6, 24, and 48 h
Protocol: as §1, §2

[4] = test system: Clostridium sporogenes (spores); assay: MIC, microbroth dilution method (spore germination); type: cell-based; conditions: inhibition of spore germination, 48 h
Protocol: (§3) The MIC of the compounds for the organisms was determined by the microbroth dilution method, described hereafter. The microorganisms were prepared as described above and resuspended in their optimal growth media (Table 1) to ˜10^5 CFU/mL containing SP 25A at 2, 3, 4, 5, 6, 7, 8, 16, 32 and 50 μg/mL in a total volume of 550 μL. RL concentrations of 2, 3, 4, 5, 6, 7, 8, 16, 32 and 60 μg/mL in a total volume of 550 μL were tested in a 48-well plate (Corning, N.Y.). The plates were incubated at optimal growth conditions for the respective organism and monitored for an increase in OD600 after 48 h by a Perkin-Elmer (HTS 7000) plate reader (Downers Grove, Ill.). […] Negative controls (no inhibition of growth) were included using saline in the assay for each compound. The lowest concentration at which there was no increase in OD over 48 h was reported as the MIC. Each MIC was determined in replicate with three separate tests per replication. The results of the three tests were averaged for each replicate.

[5] = test system: Bacillus subtilis (spores); assay: as above; type: cell-based; conditions: inhibition of spore germination, 48 h
Protocol: as §3

[6] = test system: Enterococcus faecalis; type: cell-based; conditions: Enterococcus faecalis (multiple drug resistant); 48 h
Protocol: (§4) In order to determine the antimicrobial efficacy of RLs and SPs they were tested against several bacterial strains, some with multiple drug resistance. The multiple drug resistant bacterial strains used were E. faecalis and S. aureus. […] A combination of RLs and SPs were tested against L. monocytogenes.
as §3

[7] = test system: Staphylococcus aureus subsp. aureus; type: cell-based; conditions: Staphylococcus aureus subsp. aureus (multiple drug resistant); 48 h
Protocol: as §4, §3

[8] = test system: Aeromonas caviae; assay: Inhibition rate (IR), propidium iodide uptake; type: cell-based
Protocol: The antimicrobial action for each compound was initially determined by the rate of uptake of propidium iodide (Fluoropure grade, Molecular Probes, Inc., Eugene, Oreg.) as previously described (Haughland, R. P., 2002, Handbook of fluorescent probes and research chemicals, 9th ed. Molecular Probes, Inc., Eugene, Oreg.). Briefly, all cultures were grown overnight in their respective optimal growth medium and temperature from freezer vials (Table 1). Each culture was sub-cultured twice, harvested in mid-log phase, washed with saline, and adjusted to an appropriate concentration by measuring the optical density at 600 nm. PI, with an excitation wavelength of 535 and an emission wavelength of 617, was added to the culture suspension at a final concentration of 10 μM. Each organism was treated with 50 μg/mL SP 25A and 60 μg/mL of the RL mixture in a final volume of 2.2 mL. The increase in fluorescence was measured with a Shimadzu RF 1501 spectrophotofluorometer at 15 s intervals for a maximum period of 120 min. Saline was added in place of SP 25A or RLs as a negative control. All inhibition experiments were done in replicate.
The rate of antimicrobial action was expressed as the inhibition rate (“IR”). Curve fitting was done using OriginPro version 7.0 (Natick, Mass.). IR=((Log RFU/(Time))−C)/Time (when d Log RFU/dT>0). Where RFU=relative fluorescent units; and C=Y intercept.

C/C=C(\NC(=O)C(C)NC(=O)C(C)NC(=O)C(CC(C)C)NC(=O)C(NC(=O)C(C)NC(=O)C(C)NC(=O)C(NC(=O)C1CCCN1C(=O)/C(=C/C)NC(=O)CC(O)CCCCCCC)C(C)C)C(C)C)C(=O)NC(C(=O)N/C(=C\C)C(=O)NC(C)C(=O)NC(C(=O)NC(C)C(=O)NC(C)C(=O)N/C(=C\C)C(=O)NC1C(=O)NC(CO)C(=O)NC(C)C(=O)NC(C(C)C)C(=O)NC(C)C(=O)NC(CCN)C(=O)NC(CCN)C(=O)NC(Cc2ccc(O)cc2)C(=O)OC1C)C(C)C)C(C)C (centres unmarked) [SP 25A, syringopeptin 25A] ({Decanoyl(3ξ-OH)}-[Dhb]PVAAVLAA[Dhb]V[Dhb]AVAA[Dhb]TSAVA[Dab][Dab]Y; ester 18-C; configuration not given here)
cytotoxicity (percent cell death) [1]: No significant (p>0.05) cytotoxicity | cytotoxicity (percent cell death) [2]: No significant (p>0.05) cytotoxicity | cytotoxicity (percent cell death) [3]: No significant (p>0.05) cytotoxicity | MIC [4]: 4 µg/mL (≈ 1.67 µM) | MIC [5]: 4 µg/mL (≈ 1.67 µM) | MIC [6]: 8 µg/mL | MIC [7]: 8 µg/mL | IR SP 25A (50 μg/mL) [8]: 0.000
